{"source": "patent US4225526A", "about": "“8-[(4-Aminophenyl)sulfonyl]amino-2-naphthalenyl phosphorodiamidate” (Morton-Norwich Products, Inc., priority 1979, dated 1980)", "molecular_target": "T1, urease of intact Proteus mirabilis cells (Proteus mirabilis, UniProt P17086)", "T1 construct": "using intact Proteus mirabilis cells as the source of urease; endogenous in cells; host or cells: intact Proteus mirabilis cells", "T1 sequence (P17088 whole entry)": "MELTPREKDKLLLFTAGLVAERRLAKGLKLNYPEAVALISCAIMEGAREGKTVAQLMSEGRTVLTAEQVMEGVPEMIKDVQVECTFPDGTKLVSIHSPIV", "T1 sequence (P17087 whole entry, further chain)": "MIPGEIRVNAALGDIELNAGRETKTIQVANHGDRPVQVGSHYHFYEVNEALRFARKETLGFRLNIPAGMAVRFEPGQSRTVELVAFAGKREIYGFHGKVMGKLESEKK", "T1 sequence (P17086 whole entry)": "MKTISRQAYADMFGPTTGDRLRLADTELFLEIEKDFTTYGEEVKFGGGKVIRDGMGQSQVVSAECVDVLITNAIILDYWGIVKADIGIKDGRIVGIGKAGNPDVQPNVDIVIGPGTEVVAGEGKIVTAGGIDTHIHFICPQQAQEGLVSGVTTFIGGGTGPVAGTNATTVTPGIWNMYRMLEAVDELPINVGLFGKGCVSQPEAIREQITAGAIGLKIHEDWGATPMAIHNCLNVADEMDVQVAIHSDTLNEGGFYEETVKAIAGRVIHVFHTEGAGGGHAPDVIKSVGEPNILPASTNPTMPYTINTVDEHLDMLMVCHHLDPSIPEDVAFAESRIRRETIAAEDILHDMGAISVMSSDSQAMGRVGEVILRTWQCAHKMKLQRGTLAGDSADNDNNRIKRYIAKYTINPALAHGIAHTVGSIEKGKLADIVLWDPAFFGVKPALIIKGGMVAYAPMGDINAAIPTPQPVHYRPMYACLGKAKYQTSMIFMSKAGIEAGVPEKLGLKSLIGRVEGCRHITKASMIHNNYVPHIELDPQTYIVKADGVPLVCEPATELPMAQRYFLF", "assay": "anti-urease potency using intact Proteus mirabilis cells", "type": "cell-based", "conditions": "40 minutes preincubation, pH 8.0; ammonia formed in five minutes after addition of urea; read-out: concentration evincing 50% inhibition of the urease of intact Proteus mirabilis cells", "description": "The anti-urease potency of the compound of this invention was determined using intact Proteus mirabilis cells as the source of urease. Compounds were preincubated with Proteus mirabilis cells suspended in a saline solution (0.1 molar) buffered with 0.1 molar tris(hydroxymethyl)aminomethane (pH 8.0). After 40 minutes preincubation, the remaining urease activity was determined by collecting the ammonia formed in five minutes after the addition of the substrate, urea. Ammonia assays were carried out according to the procedure of Seligson and Seligson [J. Lab. Clin. Med. 38, 324-330 (1951)]. Percent inhibition was calculated by comparing the amount of ammonia generated by cells preincubated with 8-[(4-aminophenyl)sulfonyl]amino-2-naphthalenyl phosphorodiamidate with the controls in which preincubation was carried out in the absence of compound."}
{"compound": "Nc1ccc(S(=O)(=O)Nc2cccc3ccc(OP(N)(N)=O)cc23)cc1", "note": "[this compound, 8-[(4-aminophenyl)sulfonyl]amino-2-naphthalenyl phosphorodiamidate]", "values": [{"measurement": "IC50", "value": 400, "unit": "nM"}]}
